Results published in patent US10988786B2, “Mutant 4-hydroxyphenylacetate 3-hydroxylases and uses thereof” (SYMRISE AG, priority 2015, dated 2021).
Residue numbers refer to the chain shown, from its start. Names may count otherwise.

What was measured:
wild-type 4HPA3H = molecular target: T1, wild-type 4HPA3H (Escherichia coli, UniProt Q57160); experiment: In vitro hydroxylation by the 4HPA3H/PrnF/FDH system, wild-type 4HPA3H; assay type: biochemical, E. coli; conditions: substrate 1 mM, purified wild-type 4HPA3H, optimized conditions
T1 construct: made in house; host or cells: E. coli BL21(DE3)
Procedure: (§1) Purified 4HPA3H (A) or variants (B) (Y301I depicted in white and Y301F/S462A depicted in black) were used for conversion of substrates (1 mM) under optimized conditions. The numbers correspond to substrates as explained in the legend for FIG. 1 above.
(§2) In order to develop an effective and low-cost enzyme system for in vitro hydroxylation, several parameters of the 4HPA3H reaction with respect to maximum reaction rate were optimized. By means of a spectrophotometric assay (Example 4 above), the inventors screened different buffer systems and optimized the concentration of the components p-coumaric acid (1 cf. FIG. 1), FAD, NADH and methanol, the incubation temperature and oxygen transfer (i.e. by variation of the shaking frequency) (optimum conditions are given in the Experimental Section). […] In contrast to the cofactors, the accompanying cofactor recycling redox enzymes PrnF and FDH were used in excess due to their high specific activity.
In accordance with the whole-cell transformation experiments (FIG. 3), product yields in the conversion by the wild-type 4HPA3H (FIG. 8A) ranged from high (1, 13, 15 cf. FIG. 1) or moderate (5 cf. FIG. 1) to low (9, 11 cf. FIG. 1), whereas ferulic acid 3 was not oxidized. […] However, in contrast to the experiments with life biocatalysts […] conversion of naringenin (7 cf. FIG. 1) by the wild-type 4HPA3H (25% yield) was observed (which might be explained by increased substrate availability). The hydroxycarbazole (11) was not accepted by the double variant Y301F/S462A, probably because of the high substrate concentration which seems to reflect strong […] inhibition—an effect which has previously been observed for other 4HPA3H enzymes. Noteworthy, HPLC analysis of the reaction products confirmed product specificity.

4HPA3H = molecular target: T2, 4HPA3H (Escherichia coli, UniProt Q57160); experiment: Whole-cell hydroxylation, cells expressing wild-type 4HPA3H; assay type: cell-based, E. coli; conditions: BL21(DE3) cells expressing wild-type 4HPA3H
T2 construct: expressed in transfected cells; host or cells: E. coli BL21(DE3)
Procedure: (§5) Substrates (200 μM) as shown in FIG. 1 were added to suspensions of bacterial cells expressing 4HPA3H or its single (A) and double variants (B). After incubation for 16 hours, catechols and residual substrates were extracted and analyzed by HPLC
(§6) Suspensions of the cells were tested for hydroxylation of a panel of eight phenolic compounds (FIG. 1) which belong to different classes of natural products: we included (I) phenolic acids and ketones such as p-coumaric acid (1), ferulic acid (3), rheosmin (15) and p-hydroxybenzoic acid (9), (II) polycyclic compounds such as the hydroxycoumarin umbelliferone (13), the stilbene resveratrol (5) and the flavonoid naringenin (7). […] 4HPA3H was also tested for conversion of 4-methoxycinnamic acid and 4-aminocinnamic acid.

4HPA3H enzymes = conditions: previous study; cited from earlier work
[1] = molecular target: T3, 4HPA3H-Y301F/S462A (SEQ ID NO:175) (Escherichia coli, UniProt Q57160, S462A/Y301F); experiment: Solid phase-based cascade (Talon column), hydroxylation of naringenin to eriodictyol; assay type: biochemical, E. coli
T3 construct: made in house; host or cells: E. coli BL21(DE3)
Procedure: Stock solutions of […] and eriodictyol (10 mM each) in methanol were produced (for the structure of the compounds, see FIG. 9). They were diluted using acetonitrile for obtaining the desired concentrations (70, 110, 140, 210 and 280 μM). 10 μl of each sample was injected in to a HPLC machine and calibration curves were produced for both substances (data not shown).
First the catalysis was performed using 9 mU oxidase 4HPA3H in a 10 ml reaction comprising 1 ml 1M Tris/HCl, pH 7.5; 25 μl of a 10 mM NADH solution, 20 μl of a 5 mM FAD solution and 1 ml formate solution using 9 mU 4HPA3H-Y301F/S462A (SEQ ID NO:175) and 0.57 mU PrnF-reductase (SEQ ID NO:176) and 640 mU FDH (SEQ ID NO:177). Subsequently the enzymes were mixes, 100 μl 1M Tris/HCl solution, pH 7.5, was added and ddH2O (deionized, reverse osmosis) was added ad 2 ml. The enzyme solution was at least 5 times passed through a 1 ml Talon column with a flow rate of 0.1 ml/min^−1 to let the proteins bind to the column in a homogenous way. The evaluation of the complete binding of the proteins to the column material was measured via Bradford assay. Then, the column was washed once with 50 mM Tris/HCl, pH 7.5 (=basis buffer), and connected to a peristaltic pump.
The constituents of each reaction mixture were transferred to a suitable sterile flask, which was then connected to a peristaltic pump. During reaction, the reaction mixture was slightly stirred with the help of a magnetic stirrer. Using a flow rate of 1 ml/min, the system was washed with the basis buffer for 2 min and a control sample was taken. Only then, the substrate was added, here 200 μM naringenin (from a 10 mM stock solution in methanol). The substrate was pumped over the Talon column having the enzymes bound thereto with a flow rate of 1 ml/min at maximum. During the time range from 0-1310 min, the sample extraction was performed in samples of 35 μl each. Said samples were mixed with an equal volume of acetonitrile and were immediately injected into a HPLC device (20 μl each). The evaluation was conducted with the help of a calibration curve done at the beginning of the experiment and thereby measuring and calculating the peak areas (see FIG. 10).
The same assay was performed using 35 mU hydroxylase/1 ml column volume and the concentration of the co-enzymes for regeneration of the cofactor was increased equivalently.

[2] = Whole-cell hydroxylation, variants on substrates 5, 9 and 11; assay type: cell-based; conditions: whole cells
[3] = Whole-cell hydroxylation, variants compared with wild-type on well-accepted substrates; conditions: whole cells
Procedure: as §5, §6

[4] = In vitro catechol complex formation assay (4HPA3H/PrnF/FDH), p-coumaric acid; assay type: biochemical; conditions: purified enzyme, optimized conditions, PrnF and FDH
Procedure: (A) Standard curve for the determination of caffeic acid (2 cf. FIG. 1). Mixtures of caffeic acid and p-coumaric acid (1) were incubated with FeCl3 and analyzed at 595 nm as described in the Experimental Section. (B) Time course of the oxidation of p-coumaric acid (1 cf. FIG. 1) by wild-type 4HPA3H. The enzymatic reaction was performed under optimized conditions, and produced caffeic acid (2 cf. FIG. 1) was detected as Fe^3+ complex. Data are the means±standard deviations obtained from three measurements.
(§3) For assaying 4HPA3H in microplate scale, 4HPA3H was incubated with PrnF, the substrate p-coumaric acid (1 cf. FIG. 1) and the formate dehydrogenase (FDH) from Candida boidinii. Similar as reported in our previous publication, this enzyme was introduced for regeneration of the costly cofactor NADH: NAD^+ formed during the reaction is recycled with sodium formate, yielding a sequential three-enzyme cascade for hydride transfer (FIG. 2). The conversion of p-coumaric acid (1 cf. FIG. 1) was measured spectrophotometrically by a previously established catechol complexation method (M. Dippe, B. Weigel, R. Heinke, T. Vogt, L. A. Wessjohann, 2014), which could be applied for quantitative determination of the product caffeic acid (see FIG. 6). […] However, similar to the data obtained from whole-cell biotransformations (see Example 2), these variants were beneficial in the conversion of ferulic acid (3 cf. FIG. 1), which is also reflected by comparably high conversion rates (4HPA3H-Y301F/S462A: 1.06±0.31 nmol min^−1 mg^−1, 4HPA3H-Y301I: 4.49±0.20 nmol min^−1 mg^−1).
(§4) In order to develop an effective and low-cost enzyme system for in vitro hydroxylation, several parameters of the 4HPA3H reaction with respect to maximum reaction rate were optimized. […]

[5] = In vitro assay (4HPA3H/PrnF/FDH), conversion of ferulic acid; assay type: biochemical; conditions: purified enzyme, PrnF and FDH
Procedure: as §3, §4

[6] = In vitro hydroxylation, mutant enzymes on challenging substrates 3 and 7; assay type: biochemical; conditions: substrate 1 mM, purified enzymes
Procedure: as §1, §2
In accordance with the whole-cell transformation experiments (FIG. 3), product yields in the conversion by the wild-type 4HPA3H (FIG. 8A) ranged from high (1, 13, 15 cf. FIG. 1) or moderate (5 cf. FIG. 1) to low (9, 11 cf. FIG. 1), whereas ferulic acid 3 was not oxidized. […]

Oc1ccc(C=Cc2cc(O)cc(O)c2)cc1 [Compound 5, resveratrol]
product yield (wild-type 4HPA3H): moderate

Nc1ccc(C=CC(=O)O)cc1 [4-aminocinnamic acid]
acceptance as substrate (4HPA3H): no substrates

O=C(O)/C=C/c1ccc(O)cc1 [Compound 1, p-coumaric acid]
acceptance as substrate (4HPA3H): high efficiency
product yield (wild-type 4HPA3H): high

COc1cc(/C=C/C(=O)O)ccc1O [Compound 3, ferulic acid]
acceptance as substrate (4HPA3H): not accepted
product yield (wild-type 4HPA3H): not oxidized

O=C(O)C=Cc1ccccc1 [cinnamic acid]
hydroxylation of substrate (4HPA3H enzymes): unable to hydroxylate

O=C(O)c1ccc(O)cc1 [Compound 9, p-hydroxybenzoic acid]
product yield (wild-type 4HPA3H): low

COc1ccc(C=CC(=O)O)cc1 [4-methoxycinnamic acid]
acceptance as substrate (4HPA3H): no substrates

CC(=O)CCc1ccc(O)cc1 [Compound 15, rheosmin]
conversion / yield of catechol product (4HPA3H; substrate 200 μM, 16 hours, HPLC): 100%
product yield (wild-type 4HPA3H): high

O=C1C[C@@H](c2ccc(O)c(O)c2)Oc2cc(O)cc(O)c21 [Compound 8, eriodictyol]
biocatalytic formation of eriodictyol ([1]; 9 mU enzyme/1 ml column, 200 μM naringenin, after 1290 min): 42.4 µM
eriodictyol yielded ([1]; 35 mU hydroxylase/1 ml column volume, after 240 min): 67.7 µM

O=c1ccc2ccc(O)cc2o1 [Compound 13, umbelliferone]
product yield (wild-type 4HPA3H): high

B1: 4HPA3H-Y301F: 4HPA3H single variant Y301F (protein, listed as Escherichia coli)
chain: MKPEDFRASTQRPFTGEEYLKSLQDGREIYIYGERVKDVTTHPAFRNAAASVAQLYDALHKPEMQDSLCWNTDTGSGGYTHKFFRVAKSADDLRQQRDAIAEWSRLSYGWMGRTPDYKAAFGCALGANPGFYGQFEQNARNWYTRIQETGLYFNHAIVNPPIDRHLPTDKVKDVYIKLEKETDAGIIVSGAKVVATNSALTHYNMIGFGSAQVMGENPDFALMFVAPMDADGVKLISRASYEMVAGATGSPYDYPLSSRFDENDAILVMDNVLIPWENVLIYRDFDRCRRWTMEGGFARMFPLQACVRLAVKLDFITALLKKSLECTGTLEFRGVQADLGEVVAWRNTFWALSDSMCSEATPWVNGAYLPDHAALQTYRVLAPMAYAKIKNIIERNVTSGLIYLPSSARDLNNPQIDQYLAKYVRGSNGMDHVQRIKILKLMWDAIGSEFGGRHELYEINYSGSQDEIRLQCLRQAQNSGNMDKMMAMVDRCLSEYDQDGWTVPHLHNNDDINMLDKLLK
modifications: 4HPA3H HpaB Y301F
notes: 4HPA3H single variant Y301F
conversion of the substrates 5, 9 and 11 [2]: superior
activity towards substrates 1, 13, 15 compared with wild-type enzyme [3]: comparably active

B2: 4HPA3H-Y301F/S462A: 4HPA3H double variant, SEQ ID NO:175 (protein, listed as Escherichia coli)
chain: B1 chain with S462A
modifications: 4HPA3H HpaB Y301F/S462A
specific activity towards p-coumaric acid (1) [4]: 1.6 ± 0.3 nmol/min/mg
conversion rate of ferulic acid (3) [5]: 1.06 ± 0.31 nmol/min/mg
transformation of the challenging substrates 3 and 7 [6]: optimal

B3: 4HPA3H-Y301I: 4HPA3H single variant with isoleucine at position 301 (protein, listed as Escherichia coli)
chain: B1 chain with F301I
modifications: 4HPA3H HpaB Y301I
notes: 4HPA3H single variant with isoleucine at position 301
specific activity towards p-coumaric acid (1) [4]: 1.3 ± 0.6 nmol/min/mg
conversion rate of ferulic acid (3) [5]: 4.49 ± 0.20 nmol/min/mg
transformation of the challenging substrates 3 and 7 [6]: optimal

B4: S462A: 4HPA3H single variant S462A (protein, listed as Escherichia coli)
chain: B1 chain with F301Y, S462A
modifications: 4HPA3H HpaB S462A
activity towards substrates 1, 13, 15 compared with wild-type enzyme [3]: comparably active

B5: 4HPA3H: wild-type 4-hydroxyphenylacetate 3-hydroxylase from E. coli, SEQ ID NO:98 (protein, listed as Escherichia coli)
chain: B1 chain with F301Y
modifications: 4HPA3H HpaB wt
specific activity towards p-coumaric acid (1) [4]: 6.2 ± 0.5 nmol/min/mg

B6: M293P: 4HPA3H single variant M293P (protein, listed as Escherichia coli)
chain: B1 chain with M293P, F301Y
modifications: 4HPA3H HpaB M293P
activity towards substrates 1, 13, 15 compared with wild-type enzyme [3]: reduced activity
